Experimental data taken from patent US20220347175A1, “PYRIDAZINONE DERIVATIVE” (Sumitomo Dainippon Pharma Co., Ltd., priority 2018, published 2022).

Biological target: T1, human Nav1.1 (Homo sapiens, UniProt P35498)
T1 construct: host or cells: HEK293
Assay: Amplification of Nav1.1-derived voltage-dependent sodium current (Nav1.1 current), cell line stably expressing human Nav1.1, automated patch clamp
Assay type: cell-based
Conditions: for activation at 10 µM: read-out: Nav1.1 current amplification rate (%)
Method: Test 1: Evaluation of the Amplification of Nav1.1-Derived Voltage-Dependent Sodium Current (Nav1.1 Current) by Using a Cell Line Stably Expressing Human Nav1.1
(1) Preparation of Test Compounds
Test compounds were prepared by dissolving in DMSO at 200 times of the concentration at evaluation, and diluting the obtained solution to twice the concentration of evaluation with an extracellular fluid (135 mmol/L NaCl, 4 mmol/L KCl, 1 mmol/L MgCl2, 5 mmol/L CaCl2, 5 mmol/L Glucose, 10 mmol/L HEPES).
(2) Induction and Measurement of Nav1.1 Current
A HEK293 cell line stably expressing human Nav1.1 (cat #CYL3009, Millipore, USA, Human Embryonic Kidney 293) was purchased, and used in the present test. Nav1.1 current was induced by stimulating Ramp wave voltage. Detection of current which accompanied with the stimulation of voltage was carried out by a patch-clamp voltage-clamp method using HTS automated patch clamp system (SynchroPatch 768PE, Nanion Technologies GmbH, Germany). Only cells with more than 500 pA of voltage-dependent sodium channel current were used for the evaluation of the activity of compounds on Nav1.1 current because there was the possibility that currents derived from endogenous voltage-dependent sodium channels accounted for large proportion in cells with less than 500 pA of voltage-dependent sodium channel current which was induced by stimulating Ramp wave voltage.
(3) Pharmacologic Effect on Nav1.1 Current
The effect of test compounds on the amplification of Nav1.1-derived voltage-dependent sodium current was evaluated by using a cell line stably expressing human Nav1.1 and HTS automated patch clamp system. In other words, test compounds were added in an extracellular fluid containing 1% DMSO, and evaluated as a change of the peak value of Nav1.1 current and the area under the curve (AUC).
(4) Method for Pharmacological Evaluation
The Nav1.1 current amplification rates of test compounds were calculated by the following formula:
Nav1.1 current amplification rate (%)=100×[the peak value of Nav1.1 current or the area under the curve after the addition of test compounds]/[the peak value of Nav1.1 current or the area under the curve before the addition of test compounds]−100

[1] = concentration of each compound 1 μmol/L (Test Result 6)
[2] = 10 μmol/L compound (Test Result 5)
[3] = compound 50 μmol/L, HEK293 stably expressing human Nav1.1

Structure (SMILES)	Nav1.1 current amplification rate (%) [2]	further results
CC1CC=C(c2ccc(=O)n(CC(=O)Nc3ccc(-n4ccnc4)nc3)n2)CC1 (racemic) [Example 377]	–	Nav1.1 current amplification rate (%) [1]: 134%
CC1CC=C(c2ccc(=O)n(CC(=O)Nc3cncc(-c4cnn(C)c4)c3)n2)CC1 (racemic) [Example 378]	–	Nav1.1 current amplification rate (%) [1]: 37%
CC1CC=C(c2ccc(=O)n(CC(=O)Nc3ccnc(-c4cnn(C)c4)c3)n2)CC1 (racemic) [Example 379]	147%	–
Cc1ncc(-c2cncc(NC(=O)Cn3nc(C4=CCC(C)CC4)ccc3=O)c2)o1 (racemic) [Example 380]	–	Nav1.1 current amplification rate (%) [1]: 82%
CC1CC=C(c2ccc(=O)n(CC(=O)Nc3cncc(C4=COCCC4)c3)n2)CC1 (racemic) [Example 382]	–	Nav1.1 current amplification rate (%) [1]: 13%
CC1CC=C(c2ccc(=O)n(CC(=O)N3CCCN(c4cccnc4)CC3)n2)CC1 (racemic) [Example 384]	–	Nav1.1 current amplification rate (%) [1]: 15%
CC1CC=C(c2ccc(=O)n(CC(=O)N3CC=C(c4ccccn4)C3)n2)CC1 (racemic) [Example 385]	–	Nav1.1 current amplification rate (%) [3]: 42%
CC1CC=C(c2ccc(=O)n(CC(=O)N3CC=C(c4cccnc4)C3)n2)CC1 (racemic) [Example 386]	–	Nav1.1 current amplification rate (%) [3]: 126%
CC1CC=C(c2ccc(=O)n(CC(=O)N3CC=C(c4ccncc4)C3)n2)CC1 (racemic) [Example 387]	–	Nav1.1 current amplification rate (%) [1]: 19%
CC1CC=C(c2ccc(=O)n(CC(=O)N3CC=C(c4ccccc4)C3)n2)CC1 (racemic) [Example 388]	37%	–
CC1CC=C(c2ccc(=O)n(CC(=O)N3CCC(Cc4ccccc4)C3)n2)CC1 (racemic) [Example 389]	53%	–
CC1CC=C(c2ccc(=O)n(CC(=O)N3CCC(Oc4ccccc4)CC3)n2)CC1 (racemic) [Example 390]	50%	–
CC1CC=C(c2ccc(=O)n(CC(=O)N3CCN(Cc4ccncc4)CC3)n2)CC1 (racemic) [Example 392]	53%	–
CC1CC=C(c2ccc(=O)n(CC(=O)N3CCN(Cc4cccnc4)CC3)n2)CC1 (racemic) [Example 393]	19%	–
CC1CCN(c2ccc(=O)n(CC(=O)Nc3ccc(C#N)cc3)n2)CC1 [Example 1, N-(4-cyanophenyl)-2-[3-(4-methylpiperidin-1-yl)-6-oxopyridazin-1(6H)-yl]acetamide]	–	activation at 10 µM [2]: 246%
CC1(C)CCN(c2ccc(=O)n(CC(=O)Nc3ccc(C#N)cc3)n2)CC1 [Example 2, N-(4-Cyanophenyl)-2-[3-(4,4-dimethylpiperidin-1-yl)-6-oxopyridazin-1(6H)-yl]acetamide]	–	activation at 10 µM [2]: 148%
N#Cc1ccc(NC(=O)Cn2nc(N3CCCCC3)ccc2=O)cc1 [Example 3]	40%	–
N#Cc1ccc(NC(=O)Cn2nc(N3CCCC3)ccc2=O)cc1 [Example 4]	3%	–
N#Cc1ccc(NC(=O)Cn2nc(N3CCC(F)(F)CC3)ccc2=O)cc1 [Example 5]	6%	–
CC(C)(C)C1CCN(c2ccc(=O)n(CC(=O)Nc3ccc(C#N)cc3)n2)CC1 [Example 6]	35%	–
N#Cc1ccc(NC(=O)Cn2nc(N3CCCC(O)C3)ccc2=O)cc1 (centres unmarked) [Example 7]	3%	–
N#Cc1ccc(NC(=O)Cn2nc(N3CCCC(C(N)=O)C3)ccc2=O)cc1 (centres unmarked) [Example 8]	4%	–
COC1CCN(c2ccc(=O)n(CC(=O)Nc3ccc(C#N)cc3)n2)CC1 [Example 9]	11%	–
N#Cc1ccc(NC(=O)Cn2nc(N3CCC(C(F)(F)F)CC3)ccc2=O)cc1 [Example 10]	124%	–
N#Cc1ccc(NC(=O)Cn2nc(N3CCCCCC3)ccc2=O)cc1 [Example 11]	205%	–

Structure (SMILES)	Nav1.1 current amplification rate (%) [2]	further results
N#Cc1ccc(NC(=O)Cn2nc(N3CCCCCCC3)ccc2=O)cc1 [Example 12]	241%	–
CC1CCCN(c2ccc(=O)n(CC(=O)Nc3ccc(C#N)cc3)n2)C1 (centres unmarked) [Example 13]	76%	–
CC1CC(C)CN(c2ccc(=O)n(CC(=O)Nc3ccc(C#N)cc3)n2)C1 (centres unmarked) [Example 14]	9%	–
CC1CC(C)CN(c2ccc(=O)n(CC(=O)Nc3ccc(C#N)cc3)n2)C1 (centres unmarked) [Example 15]	10%	–
N#Cc1ccc(NC(=O)Cn2nc(N3CCCC(C(F)(F)F)C3)ccc2=O)cc1 (centres unmarked) [Example 16]	59%	–
N#Cc1ccc(NC(=O)Cn2nc(N3CCC4(CC3)CC4)ccc2=O)cc1 [Example 17]	212%	–
N#Cc1ccc(NC(=O)Cn2nc(N3CC4CC4C3)ccc2=O)cc1 (centres unmarked) [Example 18]	11%	–
CC1CCN(c2ccc(=O)n(CC(=O)Nc3ccc(C#N)cc3)n2)C1 (centres unmarked) [Example 19]	98%	–
N#Cc1ccc(NC(=O)Cn2nc(N3CCCC4(CC4)C3)ccc2=O)cc1 [Example 20]	152%	–
CC1(C)CCN(c2ccc(=O)n(CC(=O)Nc3ccc(C#N)cc3)n2)C1 [Example 21]	130%	–
CC1(C)CCCN(c2ccc(=O)n(CC(=O)Nc3ccc(C#N)cc3)n2)C1 [Example 22]	110%	–
N#Cc1ccc(NC(=O)Cn2nc(N3CCC4(CCCC4)C3)ccc2=O)cc1 [Example 24]	286%	–
N#Cc1ccc(NC(=O)Cn2nc(N3CCC4(CC4)C3)ccc2=O)cc1 [Example 25]	163%	–
N#Cc1ccc(NC(=O)Cn2nc(N3CCC4(CCC4)CC3)ccc2=O)cc1 [Example 26]	364%	–
N#Cc1ccc(NC(=O)Cn2nc(N3CCC4(CC3)COC4)ccc2=O)cc1 [Example 27]	5%	–
CCC1(C)CCN(c2ccc(=O)n(CC(=O)Nc3ccc(C#N)cc3)n2)CC1 [Example 28]	158%	–
N#Cc1ccc(NC(=O)Cn2nc(N3CCC4(CCCO4)CC3)ccc2=O)cc1 [Example 29]	20%	–
CCCCN(C)c1ccc(=O)n(CC(=O)Nc2ccc(C#N)cc2)n1 [Example 30]	77%	–
N#Cc1ccc(NC(=O)Cn2nc(N3CCC4(CCCCC4)C3)ccc2=O)cc1 [Example 31]	220%	–
N#Cc1ccc(NC(=O)Cn2nc(N3CCC4(CC3)CC(F)(F)C4)ccc2=O)cc1 [Example 32]	60%	–
N#Cc1ccc(NC(=O)Cn2nc(N3CCCC4(CCC4)C3)ccc2=O)cc1 [Example 33]	220%	–
N#Cc1ccc(NC(=O)Cn2nc(N3CCC4(CCC4)C3)ccc2=O)cc1 [Example 34]	311%	–
Cc1c(N2CCC(C)CC2)nn(CC(=O)Nc2ccc(C#N)cc2)c(=O)c1C [Example 35]	301%	–
CC1CCN(c2nn(CC(=O)Nc3ccc(C#N)cc3)c(=O)c3c2CCCC3)CC1 [Example 36]	312%	–
N#Cc1ccc(NC(=O)Cn2nc(C3=CCC(F)(F)CC3)ccc2=O)cc1 [Example 37, N-(4-Cyanophenyl)-2-[3-(4,4-difluorocyclohex-1-en-1-yl)-6-oxopyridazin-1(6H)-yl]acetamide]	–	activation at 10 µM [2]: 93%
